Source: ChEMBL document CHEMBL3727346, “6-(pyridinyl)-4-pyrimidone derivates as tau protein kinase 1 inhibitors” (2011)
Calls of active or inactive are those of the source. No rule for the calls is given here.

What follows are compounds tested against Glycogen synthase kinase-3 beta splice variant X1 (Bos taurus) (UniProt A0A059UE90) (assay: Inhibition of bovine cerebral TPK1 assessed as reduction in P-GS1 phosphorylation using [32gammaP]ATP incubated for 2 hrs by liquid scintillation counting method).

inhibition, active:
Cn1c(N2CCN[C@@H](c3ccc(-c4ccc(OC(F)(F)F)cc4)cc3)C2)nc(-c2ccncc2F)cc1=O, CC(=O)OCCN1CCN(c2ccc([C@H]3CN(c4nc(-c5ccncc5F)cc(=O)n4C)CCN3)cc2)CC1, Cn1c(N2CCO[C@@H](c3ccc(N4CCCNC4=O)cc3)C2)nc(-c2ccncc2F)cc1=O, Cn1c(N2CCO[C@@H](c3ccc(NC(=O)CN4CCCCC4)cc3)C2)nc(-c2ccncc2F)cc1=O, Cn1c(N2CCO[C@@H](c3ccc(NC(=O)C4CC4)cc3)C2)nc(-c2ccncc2F)cc1=O, Cn1c(N2CCO[C@@H](c3ccc(N)c(F)c3)C2)nc(-c2ccncc2F)cc1=O, Cn1c(N2CCO[C@@H](c3ccc(NC4CCc5ccccc54)cc3)C2)nc(-c2ccncc2F)cc1=O (stereo partly drawn), Cn1c(N2CCO[C@@H](c3ccc(N4CCN(CCO)CC4)cc3)C2)nc(-c2ccncc2F)cc1=O, Cn1c(N2CCO[C@@H](c3ccc(N4CCN(c5ccccc5)CC4)cc3)C2)nc(-c2ccncc2F)cc1=O, Cn1c(N2CCO[C@@H](c3ccc(C(=O)NCCO)cc3)C2)nc(-c2ccncc2F)cc1=O, Cn1c(N2CCOC(c3cccc(-c4cncnc4)c3)C2)nc(-c2ccncc2F)cc1=O (racemic), Cn1c(N2CCO[C@@H](c3ccc(N4CC(O)C4)cc3)C2)nc(-c2ccncc2F)cc1=O, Cn1c(N2CCO[C@@H](c3ccc(N4CC[C@@H](N5CCCCC5)C4)cc3)C2)nc(-c2ccncc2F)cc1=O, COc1cc(N(C)C)ccc1[C@H]1CN(c2nc(-c3ccncc3F)cc(=O)n2C)CCO1, Cn1c(N2CCN[C@@H](c3ccc(N4CC[C@H](C#N)C4)cc3)C2)nc(-c2ccncc2F)cc1=O, CC(=O)N(c1ccc([C@H]2CN(c3nc(-c4ccncc4F)cc(=O)n3C)CCO2)cc1)C1CCCCC1, Cn1c(N2CCN[C@@H](c3ccc(N4CC[C@@H](O)C4)cc3)C2)nc(-c2ccncc2F)cc1=O, CC(=O)Nc1ccc([C@H]2CN(c3nc(-c4ccncc4F)cc(=O)n3C)CCO2)cc1, Cn1c(N2CCO[C@@H](c3ccc(OCCN4CCN(C(=O)c5ccccc5)CC4)cc3)C2)nc(-c2ccncc2F)cc1=O, Cn1c(N2CCNC(c3ccc(-c4ncon4)cc3)C2)nc(-c2ccncc2F)cc1=O (stereo not drawn), Cn1c(N2CCO[C@@H](c3ccc(N4CCCCC4)cc3)C2)nc(-c2ccncc2F)cc1=O, Cn1c(N2CCO[C@@H](c3ccc(C(C)(C)O)cc3)C2)nc(-c2ccncc2F)cc1=O, Cn1c(N2CCO[C@@H](c3ccc(N4CCN(CCO)C4=O)cc3)C2)nc(-c2ccncc2F)cc1=O, CN1CCC(Oc2ccc([C@H]3CN(c4nc(-c5ccncc5F)cc(=O)n4C)CCO3)cc2)CC1, Cn1c(N2CCN[C@@H](c3ccc(N4CCN(CCO)CC4)cc3)C2)nc(-c2ccncc2F)cc1=O, Cn1c(N2CCO[C@@H](c3ccc(OC[C@@H](O)CN4CCCC4)cc3)C2)nc(-c2ccncc2F)cc1=O, Cn1c(N2CCO[C@@H](c3ccc(O)cc3)C2)nc(-c2ccncc2F)cc1=O, CC1CC1C(=O)Nc1ccc([C@H]2CN(c3nc(-c4ccncc4F)cc(=O)n3C)CCO2)cc1 (stereo partly drawn), COC(C)(C)C(=O)N(C)c1ccc([C@H]2CN(c3nc(-c4ccncc4F)cc(=O)n3C)CCO2)cc1, Cn1c(N2CCO[C@@H](c3ccc(NC(=O)CN4CCCC4)cc3)C2)nc(-c2ccncc2F)cc1=O, CN(c1ccc([C@H]2CN(c3nc(-c4ccncc4F)cc(=O)n3C)CCO2)cc1)C1C2CC3CC(C2)CC1C3 (stereo partly drawn), Cn1c(N2CCO[C@@H](c3ccc(C(=O)NCc4ccccc4)cc3)C2)nc(-c2ccncc2F)cc1=O, CCN(CC)c1ccc([C@H]2CN(c3nc(-c4ccncc4F)cc(=O)n3C)CCO2)cc1, Cn1c(N2CCO[C@@H](c3c(F)cccc3Cl)C2)nc(-c2ccncc2F)c(F)c1=O, CN1CCN(c2ccc([C@H]3CN(c4nc(-c5ccncc5F)cc(=O)n4C)CCO3)cc2)CC1, COc1ccc(C#N)cc1[C@H]1CN(c2nc(-c3ccncc3F)c(F)c(=O)n2C)CCO1, CN(C)c1cccc2c(S(=O)(=O)Nc3ccc([C@H]4CN(c5nc(-c6ccncc6F)cc(=O)n5C)CCO4)cc3)cccc12, Cn1c(N2CCOC(c3cccc(-c4nccs4)c3)C2)nc(-c2ccncc2F)cc1=O (stereo not drawn), CC(C)c1ccc([C@H]2CN(c3nc(-c4ccncc4F)cc(=O)n3C)CCO2)cc1, Cn1c(N2CCO[C@@H](c3ccc(N(C(=O)C4CC4)C4CCCCC4)cc3)C2)nc(-c2ccncc2F)cc1=O, Cn1c(N2CCNC(c3ccc(N4CCN(C(=O)OCc5ccccc5)CC4)cc3)C2)nc(-c2ccncc2F)cc1=O (stereo not drawn), CN(c1ccc([C@H]2CN(c3nc(-c4ccncc4F)cc(=O)n3C)CCO2)cc1)C12CC3CC(CC(C3)C1)C2, Cn1c(N2CCN[C@@H](c3ccc(-c4ccc(Cl)cc4Cl)cc3)C2)nc(-c2ccncc2F)cc1=O, Cn1c(N2CCO[C@@H](c3ccc(N4CCOCC4)cc3)C2)nc(-c2ccncc2F)cc1=O, CN(C)c1ccc([C@H]2CN(c3nc(-c4ccncc4F)cc(=O)n3C)CCO2)cc1, Cn1c(N2CCN[C@@H](c3ccc(-c4ccc(N)cc4)cc3)C2)nc(-c2ccncc2F)cc1=O, Cn1c(N2CCO[C@@H](c3ccc(OC4CCCC4)cc3)C2)nc(-c2ccncc2F)cc1=O, Cn1c(N2CCO[C@@H](c3ccc(N(CC(F)(F)F)CC(F)(F)F)cc3)C2)nc(-c2ccncc2F)cc1=O, CC(=O)N(C)c1ccc([C@H]2CN(c3nc(-c4ccncc4F)cc(=O)n3C)CCO2)cc1, CN(C)CCOc1ccc([C@H]2CN(c3nc(-c4ccncc4F)cc(=O)n3C)CCO2)cc1, Cc1nc(-c2ccc(C3CN(c4nc(-c5ccncc5F)cc(=O)n4C)CCN3)cc2)no1 (stereo not drawn), Cn1c(N2CCN[C@@H](c3ccc(-c4ccc(Cl)cc4)cc3)C2)nc(-c2ccncc2F)cc1=O, Cc1cc(N2CCN(c3ccc(C4CN(c5nc(-c6ccncc6F)cc(=O)n5C)CCO4)cc3)CC2)n(-c2ccccc2)n1 (stereo not drawn)
